In patent US20240190851A1, “FURAN FUSED RING-SUBSTITUTED GLUTARIMIDE COMPOUND” (MEDSHINE DISCOVERY INC., priority 2021, published 2024):
Counter-ions that a name gives are not always drawn.

Target: T1, AR F876L (Homo sapiens, UniProt P10275, F877L)
T1 construct: expressed in transfected cells; host or cells: 293T AR F876L
T1 sequence (P10275 1-920 F877L): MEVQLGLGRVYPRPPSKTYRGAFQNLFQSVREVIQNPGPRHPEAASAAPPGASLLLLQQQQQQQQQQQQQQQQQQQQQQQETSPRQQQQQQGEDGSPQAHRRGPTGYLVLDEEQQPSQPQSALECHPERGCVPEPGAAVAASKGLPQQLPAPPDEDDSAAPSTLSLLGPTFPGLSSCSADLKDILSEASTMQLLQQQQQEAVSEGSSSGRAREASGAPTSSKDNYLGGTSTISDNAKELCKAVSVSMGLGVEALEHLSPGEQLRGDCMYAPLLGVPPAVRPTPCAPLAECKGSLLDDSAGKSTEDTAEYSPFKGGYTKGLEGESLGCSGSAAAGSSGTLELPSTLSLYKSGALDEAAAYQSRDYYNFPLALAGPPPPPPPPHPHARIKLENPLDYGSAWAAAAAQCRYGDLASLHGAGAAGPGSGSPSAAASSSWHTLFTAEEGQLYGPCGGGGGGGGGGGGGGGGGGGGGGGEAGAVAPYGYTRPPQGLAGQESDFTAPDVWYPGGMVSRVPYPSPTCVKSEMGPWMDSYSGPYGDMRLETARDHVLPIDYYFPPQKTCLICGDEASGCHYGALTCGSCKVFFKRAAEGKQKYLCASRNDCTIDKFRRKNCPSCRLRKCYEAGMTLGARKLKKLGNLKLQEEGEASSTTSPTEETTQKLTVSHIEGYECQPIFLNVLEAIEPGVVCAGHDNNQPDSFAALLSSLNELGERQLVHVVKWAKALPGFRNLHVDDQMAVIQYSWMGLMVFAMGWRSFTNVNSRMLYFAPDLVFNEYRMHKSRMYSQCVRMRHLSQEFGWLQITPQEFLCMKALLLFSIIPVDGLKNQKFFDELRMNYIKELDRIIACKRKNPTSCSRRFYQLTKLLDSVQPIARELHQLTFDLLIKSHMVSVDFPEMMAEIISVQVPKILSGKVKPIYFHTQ
Assay: In cell western of AR protein in 293T AR F876L cells
Format: cell-based
Conditions: AR degradation, 48 hours
Protocol: Experimental purpose: In this experiment, the effects of compounds WX015, WX016, and WX017 on the expression level of AR protein with point mutation in cell line 293T AR F876L were detected by in cell western assay to evaluate the degradation effect of compounds on proteins with AR F876L point mutation.
The cell line was cultured in a 37° C., 5% CO2 incubator. Regular passage, and cells in logarithmic growth phase were taken for plating.
2. Cell Plating: • 1) Cells were stained with trypan blue and viable cells were counted. • 2) The cell concentration was adjusted to an appropriate concentration with a density of 20000/well. • 3) 90 μL of cell suspension per well was added to a 96-well culture plate, and cell-free culture medium was added to the blank control well. • 4) The culture plate was cultured overnight in a 37° C., 5% CO2 incubator with 100% relative humidity.
3. […]
Relative quantification of the density intensity of immunoblot chemiluminescence bands was performed using Image Studio Ver 5.2 software.

In the case of N#Cc1ccc(O[C@H]2CC[C@H](NC(=O)c3ccc(N4CCC(CN5CCN(c6cccc7c6ccc6occ(C8CCC(=O)NC8=O)c67)CC5)CC4)nn3)CC2)cc1Cl (some centres unmarked) [Hydrochloride of WX015], the DC50 is reported as 43 nM and the Dmax (HEK-293T) is reported as 85%.
